Data from article PMC10499603, “Polθ is phosphorylated by PLK1 to repair double-strand breaks in mitosis” (Nature, 2023).

How the values were obtained:
Polθ foci in mitosis = Polθ foci in mitosis after siRNA; format: cell-based, human; settings: siRNA knockdown
Experimental: (§1) Transfection of siRNA oligonucleotides (Eurofins) was performed using Lipofectamine RNAiMax (ThermoFisher Scientific) following the manufacturer’s instructions.
(§2) Cells grown on coverslips were fixed for 15 min in 2% paraformaldehyde, permeabilized for 10 min in 0.5% Triton X-100, blocked for 30 min in BSA 5%, 0.1% Triton X-100, immunostained for 1 h with primary antibodies, 45 min with secondary antibodies (Highly Cross-Adsorbed Secondary Antibodies Alexa Fluor, ThermoFisher Scientific) and mounted Vectashield mounting medium containing DAPI (Vector Laboratories). The same protocol was applied to mitotic cells, which were collected by shake off and centrifuged onto glass slides using a cytospin centrifuge (400g, 5 min) before fixation. […] Biotin azide-EdU click-it reaction was performed after fixation and permeabilization by incubating cells with a mix of Picolyl biotin, CuSO4, THPTA (Jena Bioscience) and sodium ascorbate in PBS for 30 min in the dark followed by an incubation with streptavidin conjugated Alex fluor 647 antibody (ThermoFisher Scientific) during 1 h at room temperature. Images were taken at 60× or 100× magnification using Upright Spinning disk Confocal Microscope (Roper/Zeiss) or at 40× magnification using DeltaVision (Deconvolution) Image Restoration Microscope. […] Images were analysed using the Fiji software. […]

TOPBP1 = settings: peptide on streptavidin beads, HeLa nuclear extract 350 μg, 2 h room temperature, immunoblot
Experimental: Peptides were coupled to streptavidin beads in 150 mM NaCl on a rotating wheel at room temperature, for 1 h. Beads were washed twice in 150 mM NaCl prior to use in pull-down assays. Nuclear extracts from HeLa cells (350 μg) or 2 ml of bacteria protein extracts were incubated with 1 nmol of desired streptavidin beads-coupled peptide, on a rotating wheel, for 2 h, at room temperature. After incubation, beads were washed three times using 150 mM NaCl RIPA buffer, and twice using 300 mM NaCl before elution in 2× Laemmli buffer. All buffers used were supplemented with phosphatase and protease inhibitors. Eluted proteins were analysed by SDS–PAGE to identify peptide partners. The same amount of peptides used for pull-downs was loaded into a separate gel, and biotin signal was detected in the migration front. […] 1628-P/S1635-P: biotin-[sequence]pSFIWSGAp[sequence]. S1628/S1635: biotin-[sequence].

[1] = system: Polθ foci formation in RPE-1 cells expressing GFP–Polθ; assay: siRNA screen for ionizing radiation-induced Polθ foci formation; format: cell-based, human; settings: 10 nM siRNA, 72 h, then 5 Gy, 2 h; cells with at least 5 Polθ foci; median RZ score of the three siRNAs, three replicate experiments
Description: The Human DDR siRNA library comprising 1,746 single siRNAs representing 582 human genes (3 siRNAs per gene) was obtained from ThermoFisher Scientific (A30089). For controls, siRNAs targeting GL2, kinesin family member 11 (KIF11) and GM130 were used to assess transfection efficacy and induced cell toxicity. FANCD2 siRNA ([…]dT, defined as FANCD2-ctrl in Supplementary Table 1) was used as a positive control inhibiting Polθ foci formation. RPE-1 cells expressing GFP–Polθ (250 cells per well in 384-well plates) were grown overnight. siRNAs were incubated 15 min with 0.05 μl Interferin reagent (Polyplus transfection) and Opti-MEM (ThermoFisher Scientific) prior to being transferred into each 384-well plate wells, to obtain a 10 nM final concentration. Cells were irradiated 72 h after transfection, at a dose of 5 Gy (226 s) with the CIXD irradiator (RadeXp platform, Institut Curie) and incubated at 37 °C, 5% CO2 for 2 h. […] Polθ was then identified as organelles in the nuclei area and quantified by the average intensity of pixels within the defined organelles region. […] Corrected values were normalized as follows: sample median and median absolute deviation (MAD) were calculated from the Interferin-treated population of each internal plate data points (named as Ref pop) and used to compute robust Z-scores[59] […]

Polθ foci in interphase = Polθ foci in interphase after siRNA; format: cell-based, human; settings: siRNA knockdown
Experimental: as §1, §2

PLK1 [2] = assay: In vitro kinase assay of Polθ immunoprecipitates with recombinant PLK1; format: biochemical; settings: GFP–Polθ immunoprecipitate, recombinant PLK1 50, 100 or 500 ng, 5 μM ATP, [γ-32P]ATP, 30 min, 30 °C, autoradiography
Experimental: Immunoprecipitates of GFP–Polθ (2 h GFP trap at 4 °C, followed by 2 washes with 150 mM NaCl buffer and 1 wash with 300 mM NaCl) or 1.2 μg of RBER-CDC25tide (Reaction Biology, 0590-0000-1) were resuspended in 30 μl kinase buffer (Cell Signaling, 9802) containing 50, 100 or 500 ng of recombinant PLK1 (Reaction Biology, 0183-0000-1) and 5 μM ATP and 5 μCi [γ-^32P]ATP. After incubation for 30 min at 30 °C, reactions were stopped on ice by the addition of 2× Laemmli buffer and boiling for 5 min at 95 °C. Samples were separated on a 4–8% Tris-acetate gel (or 10% SDS–PAGE for the CDC25 positive control), and phosphorylated ^32P-Polθ and CDC25 were detected by autoradiography.

PLK1 [3] = assay: Real-time NMR phosphorylation of Polθ fragments by PLK1; format: biochemical; settings: SOFAST HMQC series, 298 K, 8 h, PLK1 1:200
Experimental: (§3) The NMR experiments were performed on the Polθ protein fragments (E1424–Q1503) and (E1540–S1660), either ^15N- or ^15N,^13C-labelled, and dissolved in the NMR buffer (with in addition 7% v/v D2O and EDTA-free Protease Inhibitor Cocktail 1× (Roche)). Most experiments were recorded on a 700 MHz Bruker ADVANCE NEO spectrometer equipped with a triple resonance cryogenically cooled probe. ^1HN, ^13Cα, ^13Cβ, ^13CO and ^15N resonance frequencies of the non-phosphorylated fragments were assigned at 283 K using 2D ^1H–^15N SOFAST HMQC, 3D HNCA, 3D HNCACB, 3D CBCA(CO)NH, 3D HNCO, 3D HN(CA)CO and 3D HN(CA)NNH experiments. All 3D experiments were recorded using non uniform sampling (NUS: 40–50%). To monitor phosphorylation by PLK1, either ^15N- or ^15N,^13C-labelled Polθ protein fragments were mixed with PLK1, and a series of 16 2D NMR ^1H-^15N SOFAST HMQC experiments were recorded at 298 K during 8 h, each experiment being a 1,536 × 160 dataset acquired with 80 scans during 30 min[50]. The temperature was then set to 283 K and 2D ^1H–^15N SOFAST HMQC, 3D HNCA, 3D HNCACB, 3D CBCA(CO)NH and 3D HN(CA)NNH experiments were recorded, in order to assign the resonance frequencies of the phosphorylated fragments (here again with NUS at 40–50%). […]

[4] = target: T1, TOPBP1 BRCT7-8 domain, TOPBP1 fragment (1264–1493) (UniProt Q92547 1264-1493); assay: NMR titration; 2D 1H-15N spectra of 15N-labelled Polθ (E1424-Q1503), phosphorylated or not, without and with TOPBP1 BRCT7-8 at a 1:0.5 ratio; 25 mM HEPES, 50 mM NaCl, pH 7; settings: both partners purified
T1 construct: source: bacteria protein extracts named for the peptide pull-down

TOPBP1 BRCT7-8 = target: T2, TOPBP1 BRCT7-8 (Homo sapiens, UniProt Q92547); assay: 2D NMR of 15N-labelled Polθ fragment with TOPBP1 BRCT7-8; format: binding; settings: 2D 1H–15N, Polθ fragment:BRCT7-8 1:0.5, 25 mM HEPES, 50 mM NaCl, pH 7
T2 construct: GST (N); TEV cleavage site; made in house; host or cells: E. coli BL21 (DE3) Star
Experimental: as §3

T1 sequence (Q92547 1264-1493): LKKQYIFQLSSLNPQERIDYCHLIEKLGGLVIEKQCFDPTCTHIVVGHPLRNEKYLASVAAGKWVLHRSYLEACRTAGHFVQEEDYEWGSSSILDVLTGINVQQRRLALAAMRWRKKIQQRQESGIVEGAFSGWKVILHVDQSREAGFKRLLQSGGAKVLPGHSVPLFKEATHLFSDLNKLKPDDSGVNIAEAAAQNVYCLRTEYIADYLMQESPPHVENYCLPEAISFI
T2 sequence (Q92547 1264-1493): as above

“ACAAAUACAUGGCUGGUUAdTdT (guide ACAAAUACAUGGCUGGUUATT; chemistry not fully specified) [TOPBP1, siRNA targeting TOPBP1]” was tested, and the “Polθ foci formation in mitosis” value (Polθ foci in mitosis) was “suppressed Polθ foci (and filament) formation only in mitosis”.

In the case of “biotin-GSGTRQNHpSFIWSGApSFDLSPGLQRILDKVSS [1628-P/S1635-P]”, the “interaction with TOPBP1” value (TOPBP1) is reported as “did not interact with TOPBP1”.

With “GUCUCCCAGAAGACAGUGAdTdT (sense GUCUCCCAGAAGACAGUGATT; chemistry not fully specified) [MDC1, siRNA targeting MDC1]” the “Robust z score_corrected_Cells multi-foci_MultiFoci (%)” value [1] was -2.42, the “Polθ foci formation in mitosis” value (Polθ foci in mitosis) was “prevented the formation of Polθ foci in both interphase and mitosis” and the “Polθ foci formation in interphase” value (Polθ foci in interphase) was “prevented the formation of Polθ foci in both interphase and mitosis”.

For Polθ: DNA polymerase theta, the “phosphorylation of Polθ by PLK1” value (PLK1 [2]) was “direct phosphorylation of Polθ by PLK1” and the “kinetics of Polθ phosphorylation by PLK1” value (PLK1 [3]) was “fast kinetics of Polθ phosphorylation”.

B1: phosphorylated recombinant Polθ fragment (E1424–Q1503) (domain or fragment, human, UniProt O75417 1424-1503, looked up)
chain: EENGLFLKKNEVSVTDSQLNSFLQGYQTQETVKPVILLIPQKRTPTGVEGECLPVPETSLNMSDSLLFDSFSDDYLVKEQ
modifications: 15N-labelled; phosphorylated by PLK1, sites include S1482, S1486, S1488 and S1493
notes: DNA polymerase theta (Polθ), human, residues E1424-Q1503; also called phosphorylated Polθ E1424–Q1503 fragment; Polθ protein fragment F1 (phosphorylated); source: E. coli BL21 (DE3) Star, purified (HisTrap, TEV cleavage, reverse HisTrap), then phosphorylated with PLK1; not shown: GB1, C-terminal, cleaved; His6, C-terminal, cleaved
B1: binds [4].

B2: non-phosphorylated recombinant Polθ fragment (E1424–Q1503) (domain or fragment, human, UniProt O75417 1424-1503, looked up)
chain: EENGLFLKKNEVSVTDSQLNSFLQGYQTQETVKPVILLIPQKRTPTGVEGECLPVPETSLNMSDSLLFDSFSDDYLVKEQ
modifications: 15N-labelled
notes: DNA polymerase theta (Polθ), human, residues E1424-Q1503; also called non-phosphorylated Polθ fragment from Glu1424 to Gln1503; Polθ protein fragment F1; source: E. coli BL21 (DE3) Star, purified (HisTrap, TEV cleavage, reverse HisTrap); not shown: GB1, C-terminal, cleaved; His6, C-terminal, cleaved
B2: binds [4].

B3: non-phosphorylated recombinant Polθ (E1424–Q1503): recombinant Polθ fragment E1424–Q1503 from E. coli (protein, UniProt O75417 1424-1503, looked up, fragment)
chain: EENGLFLKKNEVSVTDSQLNSFLQGYQTQETVKPVILLIPQKRTPTGVEGECLPVPETSLNMSDSLLFDSFSDDYLVKEQ
B3 was tested, and the “NMR signals lost upon addition of TOPBP1 BRCT7-8” value (TOPBP1 BRCT7-8) was “only a few NMR peaks were lost upon addition of TOPBP1 BRCT7-8”.

B4: phosphorylated recombinant Polθ fragment (E1424–Q1503): recombinant Polθ fragment E1424–Q1503 phosphorylated by PLK1 (protein)
chain: EENGLFLKKNEVSVTDSQLNSFLQGYQTQETVKPVILLIPQKRTPTGVEGECLPVPETSLNMSDSLLFDSFSDDYLVKEQ
modifications: 15N-labelled; phosphorylated by PLK1, sites include S1482, S1486, S1488 and S1493; left off: GB1, C-terminal, cleaved | His6, C-terminal, cleaved
In the case of B4, the “NMR signals lost upon addition of TOPBP1 BRCT7-8” value (TOPBP1 BRCT7-8) is reported as “NMR signals corresponding to the Polθ region (p-S1482–L1499) were lost upon addition of BRCT7-8”.
